Laboratory results as given in US11884750B2, “Cationic cell penetrating peptides and the use thereof” (CELLTROY CO., LTD., priority 2021, dated 2024).

Assays:
HeLa cell line = test: Cell penetration efficiency using cervical cancer cells; type: cell-based; conditions: 4 μM FITC-conjugated CPP, one hour
Procedure: (§1) Subsequently, to confirm whether the CPPs according to the present invention show excellent cell permeability into different types of cells/tissues, various tissue-derived cells were treated with biologically active molecule-conjugated CPPs to compare its delivery capacity with TAT. As in the previous examples, each cell was aliquoted in a plate at an appropriate density, and cultured in a 10% FBS-added medium under a condition of 37° C. and 5% CO2 for 24 hours. Subsequently, the cells were treated with 4 μM each of FITC-conjugated CPP or FITC-conjugated TAT and incubated for one hour. After the completion of the incubation, the cells were transferred to a sterile tube using 0.25% trypsin and centrifuged to remove the medium. Afterward, the cells were washed with 500 μL of D-PBS twice to completely remove the medium, and finally, resuspended in 400 μL of D-PBS and intracellular fluorescence was measured by flow cytometry (FACSCanto II).

SH-SY5Y cells = test: Cell penetration efficiency in human neuroblastoma cells, 4 μM, flow cytometry; type: cell-based; conditions: one hour; for cell permeability compared with TAT: 4 μM FITC-conjugated CPP, flow cytometry; for Score / Score/TAT: 4 μM FITC-conjugated peptide; for Score: intracellular fluorescence by flow cytometry; for Score/TAT: ratio to FITC-conjugated TAT
Procedure: The cell penetration efficiency of the cationic CPPs selected in Example 1 was evaluated in neuroblastoma. In further detail, SH-SYSY cells, which is a human neuroblastoma cell line, were seeded in 24-well plates to have a cell density of 1×10^7 cells/well, and cultured in 10% FBS-added DMEM under conditions of 37° C. and 5% CO2 for 24 hours. In addition, the cells were treated with 4 μM each of FITC-conjugated CPPs (C12, C14, C16, C31, C52, and C67), or FITC-conjugated TAT, and incubated for one hour. After the termination of the incubation, the cells were transferred to a sterile tube using 0.25% trypsin and centrifuged to remove the medium. Afterward, the cells were washed with 500 μL of D-PBS twice to completely remove the medium, and finally, resuspended in 400 μL of D-PBS and intracellular fluorescence was measured by flow cytometry (FACSCanto II).
(§2) To evaluate the cell penetration efficiency of the additionally selected cationic CPPs, an experiment was conducted using human epidermal cells or human neuroblastoma cells. In further detail, HaCAT cells, which is a human epidermal cell line, or SH-SYSY cells, which is a human neuroblastoma cell line, were seeded in 24-well plates to have a cell density of 1×10^7 cells/well and cultured in 10% FBS-added DMEM under conditions of 37° C. and 5% CO2 for 24 hours. In addition, the cells were treated with 4 μM each of FITC-conjugated peptides and FITC-conjugated TAT for one hour. After the completion of the culture, the cells were transferred to a sterile tube using 0.25% trypsin and centrifuged to remove the medium. Afterward, the cells were washed with 500 μL of D-PBS twice to completely remove the medium, and finally, resuspended in 400 μL of D-PBS and intracellular fluorescence was measured by flow cytometry (FACSCanto II).
as §1

A-427 cell line = test: Cell penetration efficiency using lung cells; type: cell-based; conditions: A-427 lung cells, 4 μM FITC-conjugated CPP, one hour
Procedure: as §1

HT1080 cell line = test: Cell penetration efficiency using connective tissue (fibrosarcoma) cells; type: cell-based; conditions: 4 μM FITC-conjugated CPP, one hour
Procedure: as §1

HaCAT cells = test: Cell penetration efficiency in human epidermal (skin) cells, 4 μM, flow cytometry; type: cell-based; conditions: 4 μM FITC-conjugated CPP, one hour
Procedure: The cell penetration efficiency of the cationic CPPs selected in Example 1 was evaluated using human epidermal cells. In further detail, HaCAT cells, which is a human epidermal cell line, were seeded in 24-well plates to have a cell density of 1×10^7 cells/well, and cultured in 10% FBS-added DMEM under conditions of 37° C. and 5% CO2 for 24 hours. Subsequently, the cells were treated 4 μM each of the FITC-conjugated CPP or FITC-conjugated TAT, and incubated for one hour. After the termination of the incubation, the cells were transferred to a sterile tube using 0.25% trypsin, and the medium was removed through centrifugation. Afterward, the cells were washed with 500 μL of D-PBS twice to completely remove the medium, and finally, resuspended in 400 μL of D-PBS and intracellular fluorescence was measured by flow cytometry (FACSCanto II).
as §2, §1

HGB cell line = test: Cell penetration efficiency in glioblastoma cells; type: cell-based, human; conditions: 4 μM FITC-conjugated CPP, one hour
Procedure: as §1

HEK293T cell line = test: Cell penetration efficiency using kidney cells; type: cell-based; conditions: 4 μM FITC-conjugated CPP, one hour
Procedure: as §1

SNU-46 cell line = test: Cell penetration efficiency using laryngeal cells; type: cell-based; conditions: SNU-46 laryngeal cells, 4 μM FITC-conjugated CPP, one hour
Procedure: as §1

HDF cell line = test: Cell penetration efficiency in skin cells (HDF); type: cell-based; conditions: 4 μM FITC-conjugated CPP, one hour
Procedure: as §1

| Sequence | cell permeability compared with TAT (HeLa cell line) | cell permeability compared with TAT (SH-SY5Y cells) | Score (SH-SY5Y cells) | Score/TAT (SH-SY5Y cells) | cell permeability compared with TAT (A-427 cell line) | cell permeability compared with TAT (HT1080 cell line) | cell permeability compared with TAT (HaCAT cells) | cell permeability compared with TAT (HGB cell line) | cell permeability compared with TAT (HEK293T cell line) | cell permeability compared with TAT (SNU-46 cell line) | cell permeability compared with TAT (HDF cell line) |
| --- | --- | --- | --- | --- | --- | --- | --- | --- | --- | --- | --- |
| AIKRRRRRALAKRP [C148] | higher cell permeability | higher cell permeability | 669 | 1.289 |  |  |  |  |  |  |  |
| ARKNRMARQRRLRP [C45] |  | higher cell permeability | 570 | 1.098 | higher cell permeability | higher cell permeability |  |  |  |  |  |
| ARRLRRRTAKLPAR [C102] |  | higher cell permeability | 720 | 1.387 |  |  | higher cell permeability | higher cell permeability |  |  |  |
| ARVRARLRRRRIEP [C229] | higher cell permeability | higher cell permeability | 536 | 1.033 |  |  |  |  | higher cell permeability |  |  |
| AVKRRRRRALAKRP [C149] |  | higher cell permeability | 657 | 1.266 |  |  |  |  |  |  |  |
| KARARRILRRREAP [C191] | higher cell permeability | higher cell permeability | 592 | 1.141 |  |  |  | higher cell permeability |  |  |  |
| KARARRILRRRETP [C190] |  | higher cell permeability | 579 | 1.116 |  |  |  | higher cell permeability |  |  |  |
| LDRERRRKKAERRP [C312] |  |  | 271 | 0.522 |  |  |  |  |  |  |  |
| LRRVETLRRRKQPR [C319] | higher cell permeability |  | 436 | 0.840 |  |  |  |  | higher cell permeability |  |  |
| RALKLRRRRRAVLP [C68] |  |  | 0 | 0.000 |  |  |  |  |  |  |  |
| RALRRRAARAARRP [C37] |  |  | 0 | 0.000 |  |  |  |  |  |  |  |
| RALRRRLHRQRKLP [C355] | higher cell permeability |  | 497 | 0.958 |  |  |  | higher cell permeability | higher cell permeability |  |  |
| RERKRAARKKIKKP [C210] |  |  | 386 | 0.744 |  |  |  |  |  |  |  |
| RERKRANRKKLKKP [C310] |  |  | 452 | 0.871 |  |  |  | higher cell permeability | higher cell permeability |  |  |
| RIRALARRRDRRRP [C354] | higher cell permeability | higher cell permeability | 564 | 1.087 | higher cell permeability | higher cell permeability |  | higher cell permeability | higher cell permeability |  |  |
| RKVLPRKQKRKRVK [C214] | higher cell permeability |  | 459 | 0.884 |  |  |  |  |  |  |  |
| RLKEERLKKRRRSP [C264] |  |  | 268 | 0.516 |  |  |  |  |  |  |  |

| Sequence | cell permeability compared with TAT (HeLa cell line) | cell permeability compared with TAT (SH-SY5Y cells) | Score (SH-SY5Y cells) | Score/TAT (SH-SY5Y cells) | cell permeability compared with TAT (A-427 cell line) | cell permeability compared with TAT (HT1080 cell line) | cell permeability compared with TAT (HaCAT cells) | cell permeability compared with TAT (HGB cell line) | cell permeability compared with TAT (HEK293T cell line) | cell permeability compared with TAT (SNU-46 cell line) | cell permeability compared with TAT (HDF cell line) |
| --- | --- | --- | --- | --- | --- | --- | --- | --- | --- | --- | --- |
| RLRAIRRRRRSLDP [C219] | higher cell permeability |  | 453 | 0.873 |  |  |  |  |  |  |  |
| RLREKRRSLKRKRP [C262] | higher cell permeability |  | 345 | 0.665 | higher cell permeability | higher cell permeability |  |  | higher cell permeability |  |  |
| RPIRKLVRKAREKR [C168] |  | higher cell permeability | 608 | 1.171 |  |  |  | higher cell permeability |  |  |  |
| RPRRKKQAKRLGKR [C378] | higher cell permeability |  | 400 | 0.771 |  |  |  |  |  | higher cell permeability |  |
| RPRRKKQVKRIGKR [C379] | higher cell permeability |  | 391 | 0.753 |  |  |  |  |  |  |  |
| RRALKRRAMRARRP [C170] | higher cell permeability | higher cell permeability | 605 | 1.166 |  |  |  | higher cell permeability |  |  | higher cell permeability |
| RRKVVREKRKRKLP [C203] | higher cell permeability | higher cell permeability | 544 | 1.048 |  |  |  |  |  |  |  |
| RRREPLRARARVRR [C387] | higher cell permeability | higher cell permeability | 560 | 1.079 |  |  |  |  | higher cell permeability |  |  |
| RRRQRKEKVRNQKP [C57] |  |  | 0 | 0.000 |  |  |  |  |  |  |  |
| RSPARKRVRAQKKR [C360] |  |  | 388 | 0.748 |  |  |  |  |  |  |  |
| RVAALLRRRRRERP [C202] | higher cell permeability | higher cell permeability | 727 | 1.401 |  | higher cell permeability |  | higher cell permeability |  |  |  |
| RVRAILRRTRRKEP [C236] | higher cell permeability |  | 395 | 0.761 |  | higher cell permeability |  |  | higher cell permeability |  |  |
| RVRALARRRRQARP [C282] | higher cell permeability |  | 441 | 0.850 | higher cell permeability | higher cell permeability |  |  | higher cell permeability |  |  |
| RVRSLARRARRRTP [C401] |  |  | 425 | 0.819 | higher cell permeability | higher cell permeability |  |  |  |  |  |
| RVRTLLRRRRTERP [C402] |  |  | 437 | 0.842 | higher cell permeability | higher cell permeability |  |  |  |  |  |
| SVKRRRRRALAKRP [C341] | higher cell permeability | higher cell permeability | 747 | 1.439 |  | higher cell permeability |  | higher cell permeability | higher cell permeability |  |  |
| YLRRKLRRRAGEPR [C230] | higher cell permeability |  | 305 | 0.588 |  |  |  |  | higher cell permeability |  |  |
